Measurements from patent US20060211725A1, “Use” (Astellas Pharma Inc., priority 2002, published 2006).
Several values for one entry are separate records, joined by “and”; a condition that tells them apart may be missing. Identical values can stand only once. Entries after “also recorded” stand apart in the source; their conditions may differ.

Key:
[1] = test system: F344 kidney allograft in LEW recipient rats; assay: Kidney allograft survival, prevention of chronic rejection (Example 1); assay type: in vivo, rat; conditions: 0-9 day; for Survival day: individual rats, n=5; for Survival rate (more than 90 days): untreated allograft 40%
Experimental: (§1) Inbred male Lewis rats (LEW) (RT1^I), weighing 250-300 g, were used as kidney transplantation recipients. Inbred male LEW and Fisher (F344) (RT1^IvI), weighing 250-350 g, were used as isograft and allograft donor rats, respectively. Kidney transplantation was performed using the modified technique of Fisher and Lee. [Fisher et al., Surgery, 58:904-914, 1965] Survival of kidney transplant was measured as time of recipient rat survival. Blood and 24 hr urine samples were collected once a week for plasma creatinine, proteinuria, and the measurement of antibody titer against donor glomeruli basement membrane protein (GBM). Kidney grafts were harvested on the 90th day posttranspalantation and subjected to histology and reverse transcriptase-polymerase chain reaction (RT-PCR) analysis. The compound (I), at doses of 10 mg/kg and 20 mg/kg were administered orally to recipient rats daily from day 0 to day 9 after transplantation. Control isograft and allograft recipients received no drug after transplantation.

[2] = test system: F344 kidney allograft in LEW recipient rats; assay: Recipient kidney function: plasma creatinine and proteinuria (Example 1); assay type: in vivo, rat; conditions: weekly for 90 days
Experimental: as §1
The recipient's kidney function was determined by measuring their plasma creatinine and proteinuria once a week for 90 days. Blood and urine samples were collected from recipients with kidney grafts described in the above. Plasma creatinine was tested by Sigma Creatinine Kit and proteinuria by Bio-Rad Protein assay.

[3] = test system: F344 kidney allograft in LEW recipient rats; assay: Kidney graft histology, modified Banff criteria (Example 1); assay type: in vivo, rat; conditions: for Banff grade: Fibro-intimal Hyperplasia / Banff grade: Glomerulitis / Banff grade: Glomerulosclerosis / Banff grade: Inflammation / Banff grade: Mesangiolysis / Banff grade: Transplant Glomerulopathy / Banff grade: Tubular Atrophy / Banff grade: Tubulitis / Banff grade: Vasculitis: graft day 90, one line per rat; for approximate cumulative reduction in Banff score: fibro-intimal hyperplasia / approximate cumulative reduction in Banff score: glomerulitis / approximate cumulative reduction in Banff score: glomerulosclerosis / approximate cumulative reduction in Banff score: interstitial inflammation / approximate cumulative reduction in Banff score: mesangiolysis / approximate cumulative reduction in Banff score: transplant glomerulopathy / approximate cumulative reduction in Banff score: tubular atrophy / approximate cumulative reduction in Banff score: tubulitis / approximate cumulative reduction in Banff score: vasculitis: vs untreated allograft control
Experimental: as §1
Kidney graft tissues were harvested from recipients on day 90th after transplantation for histological analysis. Graft samples were fixed in 10% NBF and subsequently processed then immediately embedded in ParaPlast™ paraffin embedding media. Samples were sectioned at 3 μm, pre-warmed, deparaffinized, rehydrated, and subsequently stained in one of four processes: Hematoxylin and Eosin, Per-Iodic Acid Schiff, Verhoeff's Combined Elastic Trichrome, and Per-Iodic Acid Silver Methenamine. Histological sections were blindly evaluated by two histologists and scored semiquantitatively based on modified Banff' criteria for transplant pathology. [Solez et al., Kidney Int., 44:411-422, 1993]

[4] = test system: antibody against F344 rat glomeruli basement membrane protein; assay: ELISA of plasma antibody against donor GBM (Example 1); assay type: in vivo; conditions: near days 20, 40, 90
Experimental: as §1
Specific antibody against F344 rat glomeruli basement membrane protein in plasma from LEW recipients with F344 kidneys were also measured in the isograft, untreated allograft and allograft treated with the compound (I) at doses of 10 mg/kg and 20 mg/kg near days 20, 40, and 90 after transplantation by using ELISA assay.

[5] = test system: F344 kidney allograft in LEW recipient rats; assay: Recipient kidney function under rescue treatment of chronic rejection (Example 3); assay type: in vivo, rat
Experimental: The rats and kidney transplantation methods described in Example 1 were used. […] The isograft and untreated allograft served as control groups. Blood and urine samples were collected once a week from recipients with kidney grafts described in Example 1 for measuring their plasma creatinine and proteinuria. Plasma creatinine was tested by Sigma Creatinine Kit and proteinuria by Bio-Rad Protein assay.

[6] = test system: F344 kidney allograft in LEW recipient rats; assay: Recipient kidney function, treatment with brief tacrolimus (Example 4); assay type: in vivo, rat
Experimental: The rats and kidney transplantation methods described in Example 1 were used. Tacrolimus at dose of 1 mg/kg from day 0 to day 9 after transplantation, and the compound (I) at doses of 10 mg/kg and 15 mg/kg from day 28 today 60 after transplantation were administered orally to recipient rats. In this study LEW recipients were briefly treated with oral tacrolimus at 1 mg/kg/day for 10 days after transplantation to avoid acute rejection and slow chronic rejection that gradually destroys the F344 kidney graft, resulting in functional and histological changes similar to the chronic rejection in human. The isograft, untreated allograft and allograft treated with tacrolimus 1 mg/kg for 10 days alone served as control groups. Blood and urine samples were collected once a week from recipients with kidney grafts described in Example 1 for measuring their plasma creatinine and proteinuria. Plasma creatinine was tested by Sigma Creatinine Kit and proteinuria by Bio-Rad Protein assay.

[7] = Compound (I) 10 mg/kg PO, 10 mg/kg
[8] = rescue 20 mg/kg PO for 3 weeks from onset of raised creatinine or proteinuria, after drug discontinued

C#CCC/C(O)=C(\C#N)C(=O)Nc1ccc(C(F)(F)F)cc1 [Compound (I), (2Z)-2-cyano-3-hydroxy-N-[4-(trifluoromethyl)phenyl]-2-hepten-6-ynamide]
Survival day [1, 7]: 28 days and > 90 days
Survival rate (more than 90 days) [1, 7]: 80%
Survival day ([1]; Compound (I) 20 mg/kg PO): >90(5) day
Survival rate (more than 90 days) ([1]; Compound (I) 20 mg/kg PO, 20 mg/kg): 100%
plasma creatinine ([2]; 10 mg/kg PO day 0-9): maintained normal creatinine
proteinuria ([2]; 10 mg/kg PO day 0-9): undetectable proteinuria
plasma creatinine ([2]; 20 mg/kg PO day 0-9): maintained normal creatinine
proteinuria ([2]; 20 mg/kg PO day 0-9): undetectable proteinuria
Banff grade: Fibro-intimal Hyperplasia ([3]; 10 mg from day 0-9): ++ ((++):Grade 2, Moderate); also recorded: − ((−):Grade 0, Normal)
Banff grade: Glomerulitis ([3]; 10 mg from day 0-9): + ((+):Grade 1, Mild); also recorded: − ((−):Grade 0, Normal)
Banff grade: Glomerulosclerosis ([3]; 10 mg from day 0-9): − ((−):Grade 0, Normal); also recorded: + ((+):Grade 1, Mild)
Banff grade: Inflammation ([3]; 10 mg from day 0-9): + ((+):Grade 1, Mild); also recorded: ++ ((++):Grade 2, Moderate)
Banff grade: Mesangiolysis ([3]; 10 mg from day 0-9): − ((−):Grade 0, Normal); also recorded: + ((+):Grade 1, Mild)
Banff grade: Transplant Glomerulopathy ([3]; 10 mg from day 0-9): − ((−):Grade 0, Normal); also recorded: + ((+):Grade 1, Mild)
Banff grade: Tubular Atrophy ([3]; 10 mg from day 0-9): + ((+):Grade 1, Mild)
Banff grade: Tubulitis ([3]; 10 mg from day 0-9): − ((−):Grade 0, Normal)
Banff grade: Vasculitis ([3]; 10 mg from day 0-9): + ((+):Grade 1, Mild); also recorded: +++ ((+++):Grade 3, Severe)
approximate cumulative reduction in Banff score: fibro-intimal hyperplasia ([3]; 10 mg/kg PO day 0-9): ~63%
approximate cumulative reduction in Banff score: glomerulitis ([3]; 10 mg/kg PO day 0-9): ~75%
approximate cumulative reduction in Banff score: glomerulosclerosis ([3]; 10 mg/kg PO day 0-9): ~83%
approximate cumulative reduction in Banff score: interstitial inflammation ([3]; 10 mg/kg PO day 0-9): ~50%
approximate cumulative reduction in Banff score: mesangiolysis ([3]; 10 mg/kg PO day 0-9): ~83%
approximate cumulative reduction in Banff score: transplant glomerulopathy ([3]; 10 mg/kg PO day 0-9): ~79%
approximate cumulative reduction in Banff score: tubular atrophy ([3]; 10 mg/kg PO day 0-9): ~40%
approximate cumulative reduction in Banff score: tubulitis ([3]; 10 mg/kg PO day 0-9): ~100%
approximate cumulative reduction in Banff score: vasculitis ([3]; 10 mg/kg PO day 0-9): ~33%
Banff grade: Fibro-intimal Hyperplasia ([3]; 20 mg from day 0-9): ++ ((++):Grade 2, Moderate); also recorded: + ((+):Grade 1, Mild)
Banff grade: Glomerulitis ([3]; 20 mg from day 0-9): ++ ((++):Grade 2, Moderate); also recorded: + ((+):Grade 1, Mild); also recorded: − ((−):Grade 0, Normal)
Banff grade: Glomerulosclerosis ([3]; 20 mg from day 0-9): − ((−):Grade 0, Normal)
Banff grade: Inflammation ([3]; 20 mg from day 0-9): + ((+):Grade 1, Mild)
Banff grade: Mesangiolysis ([3]; 20 mg from day 0-9): − ((−):Grade 0, Normal)
Banff grade: Transplant Glomerulopathy ([3]; 20 mg from day 0-9): − ((−):Grade 0, Normal)
Banff grade: Tubular Atrophy ([3]; 20 mg from day 0-9): + ((+):Grade 1, Mild); also recorded: − ((−):Grade 0, Normal)
Banff grade: Tubulitis ([3]; 20 mg from day 0-9): − ((−):Grade 0, Normal)
Banff grade: Vasculitis ([3]; 20 mg from day 0-9): +++ ((+++):Grade 3, Severe); also recorded: − ((−):Grade 0, Normal)
approximate cumulative reduction in Banff score: fibro-intimal hyperplasia ([3]; 20 mg/kg PO day 0-9): ~44%
approximate cumulative reduction in Banff score: glomerulitis ([3]; 20 mg/kg PO day 0-9): ~38%
approximate cumulative reduction in Banff score: glomerulosclerosis ([3]; 20 mg/kg PO day 0-9): ~100%
approximate cumulative reduction in Banff score: interstitial inflammation ([3]; 20 mg/kg PO day 0-9): ~67%
approximate cumulative reduction in Banff score: mesangiolysis ([3]; 20 mg/kg PO day 0-9): ~100%
approximate cumulative reduction in Banff score: transplant glomerulopathy ([3]; 20 mg/kg PO day 0-9): ~100%
approximate cumulative reduction in Banff score: tubular atrophy ([3]; 20 mg/kg PO day 0-9): ~85%
approximate cumulative reduction in Banff score: tubulitis ([3]; 20 mg/kg PO day 0-9): ~100%
approximate cumulative reduction in Banff score: vasculitis ([3]; 20 mg/kg PO day 0-9): ~50%
production of antibody against donor GBM in plasma ([4]; 10 mg/kg PO day 0-9): a trend of reduced production of antibody against donor GBM
production of antibody against donor GBM in plasma ([4]; 20 mg/kg PO day 0-9): a trend of reduced production of antibody against donor GBM
plasma creatinine [5, 8]: tended to be at a normal level
proteinuria [5, 8]: tended to be at a normal level
recipient kidney function ([5]; rescue 20 mg/kg PO for 3 weeks, immediate effect): did not show an immediate improvement
proteinuria ([6]; Compound (I) 10 mg/kg day 28 to 60 after brief tacrolimus 1 mg/kg day 0-9): decreased the progression of proteinuria
plasma creatinine level ([6]; Compound (I) 10 mg/kg day 28 to 60 after brief tacrolimus 1 mg/kg day 0-9, entire study period): < 1.5 mg/dL
proteinuria ([6]; Compound (I) 15 mg/kg day 28 to 60 after brief tacrolimus 1 mg/kg day 0-9): decreased the progression of proteinuria
plasma creatinine ([6]; Compound (I) 15 mg/kg/day day 28 to 60 after brief tacrolimus, increased from week 3 to week 9): it was reversed and maintained in a normal level
